Earlier results in patent US20090087484A1, “Formulation and dosage form for increasing oral bioavailability of hydrophilic macromolecules” (priority 2007, published 2009).
Read-outs that look alike come from different tables or passages of the source.

Key:
[1] = in vivo

NC(=O)CC[C@@H]1NC(=O)[C@H](Cc2ccccc2)NC(=O)[C@H](Cc2ccc(O)cc2)NC(=O)CCSSC[C@@H](C(=O)N2CCC[C@H]2C(=O)N[C@H](CCCN=C(N)N)C(=O)NCC(N)=O)NC(=O)[C@H](CC(N)=O)NC1=O [dDAVP, Desmopressin]
oral bioavailability [1]: about 0.15%

pentosan polysulfate sodium [PPS]
elimination half-life in urine (after oral administration): 4.8 h
oral bioavailability (in humans): approximately 3%
elimination half-life (mean value, following IV injection): 24 h
